From paper PMC8762671 (Chemical research in toxicology, 2021)

What was measured:
[1] = tested on: human iPSC-derived cardiomyocytes; assay: Ca2+ flux assay; type: cell-based; details: for critical endpoint (most sensitive phenotype): phenotype with lowest POD for the population median
[2] = tested on: human iPSC-derived cardiomyocytes; details: standard donor 1434 compared to the other 4 donors; ref [36]; cited from earlier work

CC/C(=C(\c1ccccc1)c1ccc(OCCN(C)C)cc1)c1ccccc1 [tamoxifen]
critical endpoint (most sensitive phenotype) [1]: did not exhibit decay-rise ratio as the critical endpoint

COc1cc(N)c(Cl)cc1C(=O)NC1CCN(CCCOc2ccc(F)cc2)CC1OC (centres unmarked) [Cisapride, cisapride]
efficacy (Emax, maximum increase in decay-rise ratio) [2]: greatest efficacy

CC(C)NCC(O)c1ccc(O)c(O)c1 (centres unmarked) [Isoproterenol]
effect on beat rate ([+] chronotropy positive control) ([1]; 10 μM, 90 min exposure, 5 donors, response vs vehicle control): expected effects on beat rate

COCCc1ccc(OCC(O)CNC(C)C)cc1 (centres unmarked) [metoprolol]
critical endpoint (most sensitive phenotype) [1]: did not exhibit decay-rise ratio as the critical endpoint

CC(C)NCC(O)COc1cccc2ccccc12 (centres unmarked) [propranolol]
effect on beat rate ([-] chronotropy positive control) ([1]; 0.5 μM, 90 min exposure, 5 donors, response vs vehicle control): expected effects on beat rate
